# In patent publication USRE46511E1, “Fused pyrimidine derivatives for inhibition of tyrosine kinase activity” (HANMI SCIENCE CO., LTD., priority 2010, dated 2017):
# Read-outs that look alike come from different tables or passages of the source.
# Experiments:
# [1] = test system: HCC827 (EGFR DelE746_A750); assay: Inhibition test for growth of cancer cell expressing EGFR (SRB), HCC827; type: cell-based; details: HCC827 cells, 72 hours, SRB, read-out: GI50 HCC827 EGFR DelE746_A750;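 note: cells in 96-well plates exposed to tenfold serial dilutions from 100 µM, fixed with trichloroacetic acid, SRB-stained, absorbance read at 540 nm, DMSO under 1%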
# [2] = test system: NCI-H1975 (EGFR L858R/T790M); assay: Inhibition test for growth of cancer cell expressing EGFR (MTS), NCI-H1975; type: cell-based; details: NCI-H1975 cells, 48 hours, MTS, read-out: GI50 NCI-H1975 EGFR L858R/T790M
# [3] = molecular target: T1, BTK (Homo sapiens, UniProt Q06187); assay: z-lyte kinase assay, BTK; type: biochemical
# T1 construct: purchased Invitrogen
# T1 sequence (Q06187 whole entry): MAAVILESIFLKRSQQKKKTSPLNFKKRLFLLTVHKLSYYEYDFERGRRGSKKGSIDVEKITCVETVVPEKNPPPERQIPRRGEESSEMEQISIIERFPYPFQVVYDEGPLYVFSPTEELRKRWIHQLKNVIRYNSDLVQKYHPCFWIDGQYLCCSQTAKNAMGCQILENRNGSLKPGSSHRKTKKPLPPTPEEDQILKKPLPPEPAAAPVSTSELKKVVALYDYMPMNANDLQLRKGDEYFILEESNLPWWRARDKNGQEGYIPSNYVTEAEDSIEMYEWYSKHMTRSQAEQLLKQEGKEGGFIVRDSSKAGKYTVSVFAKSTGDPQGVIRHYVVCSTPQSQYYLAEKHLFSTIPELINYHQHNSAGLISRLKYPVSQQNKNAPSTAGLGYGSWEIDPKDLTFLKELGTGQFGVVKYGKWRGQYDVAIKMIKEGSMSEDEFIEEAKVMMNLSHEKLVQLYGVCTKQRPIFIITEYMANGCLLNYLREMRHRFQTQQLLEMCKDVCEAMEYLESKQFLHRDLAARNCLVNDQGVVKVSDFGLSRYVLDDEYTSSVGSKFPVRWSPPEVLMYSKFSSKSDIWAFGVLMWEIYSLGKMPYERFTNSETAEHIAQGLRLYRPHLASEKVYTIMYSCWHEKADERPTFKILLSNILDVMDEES
# Procedure: (§1) The inhibiting activities of the inventive compounds obtained in Examples 1 to 237 against EGFR WT and EGFR L858R/T790M kinase were determined using z-lyte kinase assay kit (Invitrogen, PV3191). The kinases used in the test were purchased from Invitrogen.
# (§2) The compounds obtained in Examples 1 to 237 were each prepared to 10 mM DMSO solution, and a solution containing 4% DMSO were prepared therefrom and diluted to a concentration of 1 μM to 0.0001 μM. […] The test was conducted in a 384 well polystyrene flat-bottomed plates. 5 μl of the diluted solution of each compound was added to each well, and 10 μl of a mixture of peptide substrate and kinase in a suitable concentration and 5 μl of 5˜300 μM ATP solution were successively added thereto and the plate was incubated in a stirrer at room temperature for 60 minutes. After 60 mins, 10 μl of coloring reagent was added to the resulting mixture to initiate a fluorescence reaction of peptide substrate and a terminating solution was added thereto for terminating the reaction. A fluorescence value of each well was determined with a fluorescence meter (Molecular Device) at 400 nm (excitation filter) and 520 nm (emission filter). […] The calculation of IC50 and the result analysis were carried out by using Microsoft Excel.
# (§3) The inhibiting activities of the inventive compounds obtained in Examples 1 to 237 against BTK and JAK3 kinases were determined, respectively. The procedure of Test Example 2 was repeated except that BTK and JAK3 kinases (Invitrogen) were employed instead of using the EGFR kinase.
# [4] = molecular target: T2, JAK3 (Homo sapiens, UniProt P52333); assay: z-lyte kinase assay, JAK3; type: biochemical
# T2 construct: purchased Invitrogen
# T2 sequence (P52333 1-1124): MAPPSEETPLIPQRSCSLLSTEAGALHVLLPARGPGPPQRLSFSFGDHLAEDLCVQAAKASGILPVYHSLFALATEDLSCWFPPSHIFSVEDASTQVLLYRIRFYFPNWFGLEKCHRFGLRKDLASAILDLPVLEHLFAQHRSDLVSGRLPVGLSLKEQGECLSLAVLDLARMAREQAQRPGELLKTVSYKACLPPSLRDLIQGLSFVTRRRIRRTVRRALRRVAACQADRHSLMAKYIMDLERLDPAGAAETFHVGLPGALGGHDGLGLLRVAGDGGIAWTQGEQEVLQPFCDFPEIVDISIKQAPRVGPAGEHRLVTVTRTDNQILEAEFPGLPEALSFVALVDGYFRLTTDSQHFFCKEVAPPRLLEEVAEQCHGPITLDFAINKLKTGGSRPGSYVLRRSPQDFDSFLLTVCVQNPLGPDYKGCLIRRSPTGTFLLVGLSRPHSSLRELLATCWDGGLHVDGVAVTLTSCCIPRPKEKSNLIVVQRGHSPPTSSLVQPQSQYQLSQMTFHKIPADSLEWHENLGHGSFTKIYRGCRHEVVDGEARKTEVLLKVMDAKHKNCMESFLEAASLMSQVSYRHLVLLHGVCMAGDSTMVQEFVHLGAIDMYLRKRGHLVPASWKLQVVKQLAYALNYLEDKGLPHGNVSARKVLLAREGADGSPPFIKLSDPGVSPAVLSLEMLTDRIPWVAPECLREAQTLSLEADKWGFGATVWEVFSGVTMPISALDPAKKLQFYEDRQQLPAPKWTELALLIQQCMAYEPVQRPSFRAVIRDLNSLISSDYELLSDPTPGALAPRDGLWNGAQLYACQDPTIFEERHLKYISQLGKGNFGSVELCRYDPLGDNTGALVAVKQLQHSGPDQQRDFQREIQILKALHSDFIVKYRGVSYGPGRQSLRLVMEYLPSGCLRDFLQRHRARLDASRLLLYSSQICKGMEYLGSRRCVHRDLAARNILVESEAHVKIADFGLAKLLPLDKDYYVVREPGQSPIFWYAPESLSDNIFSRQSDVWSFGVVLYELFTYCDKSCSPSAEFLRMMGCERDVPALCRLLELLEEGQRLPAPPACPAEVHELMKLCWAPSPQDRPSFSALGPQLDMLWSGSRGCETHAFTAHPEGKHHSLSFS
# Procedure: as §1, §2, §3
Structure (SMILES),"GI50 ([1]; Homo sapiens, HCC827, 72 h) [nM]",GI50 ([2]; Homo sapiens) [nM],IC50 [3] [nM],IC50 [4] [nM],GI50 [1] [nM],GI50 [2] [nM]
C=CC(=O)Nc1cccc(Oc2nc(Nc3ccc(N4CCN(C)CC4)c(Cl)c3)nc3ccsc23)c1 [Example 7],< 50,< 50,≤ 50,50 to 100,–,–
C=CC(=O)Nc1cccc(Oc2nc(Nc3ccc(N4CCN(C(=O)CN(C)C)CC4)cc3)nc3ccsc23)c1 [Example 21],–,–,≤ 50,50 to 100,–,–
C=CC(=O)Nc1cccc(Oc2nc(Nc3ccc(N4CC5CC4CN5C)cc3)nc3ccsc23)c1 (stereo not drawn) [Example 28],50 to 100,< 50,≤ 50,≤ 50,–,–
C=CC(=O)Nc1cccc(Oc2nc(Nc3ccc(N4CC[C@@H](n5ccnc5)C4)cc3)nc3ccsc23)c1 [Example 36],–,–,50 to 100,50 to 100,50 to 100,< 50
C=CC(=O)Nc1cccc(Oc2nc(Nc3ccc(N4CCC(CO)CC4)cc3)nc3ccsc23)c1 [Example 40],< 50,50 to 100,50 to 100,50 to 100,–,–
C=CC(=O)Nc1cccc(Oc2nc(Nc3ccc(N4CCC(CN(C)C)CC4)cc3)nc3ccsc23)c1 [Example 41],< 50,< 50,50 to 100,50 to 100,–,–
C=CC(=O)Nc1cccc(Oc2nc(Nc3ccc(N4CCC(C(=O)O)CC4)cc3)nc3ccsc23)c1 [Example 44],–,–,50 to 100,50 to 100,–,–
C=CC(=O)Nc1cccc(Oc2nc(Nc3ccc(N4CCC(N5CCCC5)CC4)cc3)nc3ccsc23)c1 [Example 47],< 50,< 50,50 to 100,50 to 100,–,–
C=CC(=O)Nc1cccc(Oc2nc(Nc3ccc(C4CCCN(C)C4)cc3)nc3ccsc23)c1 (stereo not drawn) [Example 55],< 50,< 50,50 to 100,≤ 50,–,–
C=CC(=O)Nc1cccc(Oc2nc(Nc3ccc(NCCN(C)C)cc3)nc3ccsc23)c1 [Example 57],< 50,100 to 1000,≤ 50,50 to 100,–,–
C=CC(=O)Nc1cccc(Oc2nc(Nc3ccc(NC4CCN(C)CC4)cc3)nc3ccsc23)c1 [Example 59],< 50,100 to 1000,≤ 50,50 to 100,–,–
C=CC(=O)Nc1cccc(Oc2nc(Nc3ccc(P(=O)(OCC)OCC)cc3)nc3ccsc23)c1 [Example 67],–,–,≤ 50,≤ 50,–,–
C=CC(=O)Nc1cccc(Oc2nc(Nc3ccc([S+](C)[O-])cc3)nc3ccsc23)c1 (stereo not drawn) [Example 68],–,–,50 to 100,≤ 50,–,–
C=CC(=O)Nc1cccc(Oc2nc(Nc3ccc(S(N)(=O)=O)cc3)nc3ccsc23)c1 [Example 70],–,–,≤ 50,≤ 50,–,–
C=CC(=O)Nc1cccc(Oc2nc(Nc3ccc(S(=O)(=O)NCCN(C)C)cc3)nc3ccsc23)c1 [Example 72],< 50,< 50,≤ 50,≤ 50,–,–
C=CC(=O)Nc1cccc(Oc2nc(Nc3ccc(S(=O)(=O)NC4CCN(C)CC4)cc3)nc3ccsc23)c1 [Example 73],–,–,≤ 50,50 to 100,–,–
C=CC(=O)Nc1cccc(Oc2nc(Nc3ccc(S(=O)(=O)NC4CCN(C(C)C)CC4)cc3)nc3ccsc23)c1 [Example 74],–,–,≤ 50,50 to 100,–,–
C=CC(=O)Nc1cccc(Oc2nc(Nc3ccc(C(=O)NCCN(C)C)cc3)nc3ccsc23)c1 [Example 79],< 50,100 to 1000,≤ 50,≤ 50,–,–
C=CC(=O)Nc1cccc(Oc2nc(Nc3ccc(C(=O)N4CCC(NC)C4)cc3)nc3ccsc23)c1 (stereo not drawn) [Example 85],–,–,≤ 50,≤ 50,–,–

Structure (SMILES),"GI50 ([1]; Homo sapiens, HCC827, 72 h) [nM]",GI50 ([2]; Homo sapiens) [nM],IC50 [3] [nM],IC50 [4] [nM],GI50 [1] [nM],GI50 [2] [nM]
C=CC(=O)Nc1cccc(Oc2nc(Nc3ccc(C(=O)N4CCOCC4)cc3)nc3ccsc23)c1 [Example 88],–,–,50 to 100,50 to 100,–,–
C=CC(=O)Nc1cccc(Oc2nc(Nc3ccc(C(=O)N4CCN(C)CC4)cc3)nc3ccsc23)c1 [Example 89],–,–,≤ 50,50 to 100,–,–
C=CC(=O)Nc1cccc(Oc2nc(Nc3ccc(C(=O)N4CCN(C5CCN(C)CC5)CC4)cc3)nc3ccsc23)c1 [Example 91],–,–,≤ 50,50 to 100,–,–
C=CC(=O)Nc1cccc(Oc2nc(Nc3ccc(CS(C)(=O)=O)cc3)nc3ccsc23)c1 [Example 95],< 50,< 50,50 to 100,50 to 100,–,–
C=CC(=O)Nc1cccc(Oc2nc(Nc3ccc(CC(=O)NC4CCN(C)CC4)cc3)nc3ccsc23)c1 [Example 103],100 to 1000,< 50,≤ 50,≤ 50,–,–
C=CC(=O)Nc1cccc(Oc2nc(Nc3ccc(C4=NCCCN4)cc3)nc3ccsc23)c1 [Example 104],–,–,≤ 50,≤ 50,–,–
C=CC(=O)Nc1cccc(Oc2nc(Nc3ccc(C4C(=O)N(C)CCN4C)cc3)nc3ccsc23)c1 (stereo not drawn) [Example 105],–,–,50 to 100,≤ 50,–,–
C=CC(=O)Nc1cccc(Oc2nc(Nc3ccc(C4CCN(C)CC4)c(F)c3)nc3ccsc23)c1 [Example 127],< 50,< 50,50 to 100,50 to 100,–,–
C=CC(=O)Nc1cccc(Oc2nc(Nc3ccc(NC4CCN(C(C)C)CC4)c(F)c3)nc3ccsc23)c1 [Example 130],< 50,< 50,50 to 100,≤ 50,–,–
C=CC(=O)Nc1cccc(Oc2nc(Nc3ccc(NC4CCN(C)CC4)c(Cl)c3)nc3ccsc23)c1 [Example 141],–,–,≤ 50,50 to 100,–,–
C=CC(=O)Nc1cccc(Oc2nc(Nc3ccc(C(=O)NC4CCN(C)CC4)c(C)c3)nc3ccsc23)c1 [Example 145],–,–,≤ 50,≤ 50,–,–
C=CC(=O)Nc1cccc(Oc2nc(Nc3ccc(N4CCN(C(C)C)CC4)nc3)nc3ccsc23)c1 [Example 146],–,–,50 to 100,50 to 100,–,–
C=CC(=O)Nc1cccc(Oc2nc(Nc3ccc(N4CCN(C5CCN(C)CC5)CC4)nc3)nc3ccsc23)c1 [Example 148],< 50,< 50,≤ 50,50 to 100,–,–
C=CC(=O)Nc1cccc(Oc2nc(Nc3ccc(N4CCC(N5CCCC5)CC4)nc3)nc3ccsc23)c1 [Example 151],–,–,50 to 100,50 to 100,–,–
C=CC(=O)Nc1cccc(Oc2nc(Nc3ccc(N4CCC(N5CCCCC5)CC4)nc3)nc3ccsc23)c1 [Example 152],–,–,≤ 50,50 to 100,–,–
C=CC(=O)Nc1cccc(Oc2nc(Nc3ccc(NC4CCN(C(C)C)CC4)nc3)nc3ccsc23)c1 [Example 154],50 to 100,50 to 100,≤ 50,50 to 100,–,–
C=CC(=O)Nc1cccc(Oc2nc(Nc3ccc(CN4CCC(N(C)C)C4)cc3)nc3ccsc23)c1 (stereo not drawn) [Example 177],–,–,≤ 50,≤ 50,–,–
C=CC(=O)Nc1cccc(Oc2nc(Nc3ccc(CN4CCC(O)CC4)cc3)nc3ccsc23)c1 [Example 179],–,–,≤ 50,≤ 50,–,–
